Test results taken from PubChem BioAssay (NCI).
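Following 48 hours of exposure in 96-well plates, responses at five concentrations were used to interpolate endpoints linearly. The concentration for 50% growth inhibition is given as GI50. Definition used: TGI = concentration required for complete inhibition of growth.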

Legend:
Assay in all cases: NCI anticancer screen, dose series, 48 h
[1] = test system: SK-MEL-2 melanoma
[2] = test system: U251 CNS
[3] = test system: HCC-2998 colon
[4] = test system: NCI-H522 lung
[5] = test system: T-47D breast
[6] = test system: HCT-116 colon
[7] = test system: UO-31 renal
[8] = test system: UACC-257 melanoma
[9] = test system: EKVX NSCLC
[10] = test system: A549 NSCLC
[11] = test system: BT-549 breast
[12] = test system: KM12 colon
[13] = test system: OVCAR-8 ovarian
[14] = test system: NCI/ADR-RES ovarian
[15] = test system: SN12C renal
[16] = test system: M14 melanoma
[17] = test system: IGROV1 ovarian
[18] = test system: K-562 leukemia
[19] = test system: NCI-H460 lung
[20] = test system: DU-145 prostate
[21] = test system: HCT-15 colon
[22] = test system: UACC-62 melanoma
[23] = test system: CAKI-1 renal
[24] = test system: SW-620 colon
[25] = test system: SK-OV-3 ovarian
[26] = test system: OVCAR-5 ovarian
[27] = test system: SK-MEL-28 melanoma
[28] = test system: PC-3 prostate
[29] = test system: CCRF-CEM leukemia
[30] = test system: SF-539 CNS
[31] = test system: ACHN renal
[32] = test system: RXF 393 renal
[33] = test system: COLO 205 colon
[34] = test system: OVCAR-3 ovarian
[35] = test system: OVCAR-4 ovarian
[36] = test system: SF-268 CNS
[37] = test system: LOX IMVI melanoma
[38] = test system: NCI-H23 lung
[39] = test system: RPMI-8226 leukemia
[40] = test system: MCF7 breast
[41] = test system: HS 578T breast
[42] = test system: SNB-19 CNS
[43] = test system: SK-MEL-5 melanoma
[44] = test system: HOP-62 NSCLC
[45] = test system: TK-10 renal
[46] = test system: MDA-MB-231 breast
[47] = test system: SNB-75 CNS
[48] = test system: 786-0 renal
[49] = test system: NCI-H226 lung
[50] = test system: HT29 colon
[51] = test system: SF-295 CNS
[52] = test system: MALME-3M melanoma
[53] = test system: MDA-MB-435

Structure (SMILES): Cc1ccc(C2=C(c3ccc(C)cc3)C3(c4ccc(C)cc4)[C@@H](C#N)[C@H](C#N)C2(c2ccc(C)cc2)S3=O)cc1 (stereo partly specified)
- GI50 [1]: > 100 µM
- TGI [1]: > 100 µM
- GI50 [2]: > 100 µM
- TGI [2]: > 100 µM
- GI50 [3]: > 100 µM
- TGI [3]: > 100 µM
- GI50 [4]: > 100 µM
- TGI [4]: > 100 µM
- GI50 [5]: > 100 µM
- TGI [5]: > 100 µM
- GI50 [6]: 48.5 µM
- TGI [6]: > 100 µM
- GI50 [7]: > 100 µM
- TGI [7]: > 100 µM
- GI50 [8]: > 100 µM
- TGI [8]: > 100 µM
- GI50 [9]: > 100 µM
- TGI [9]: > 100 µM
- GI50 [10]: > 100 µM
- TGI [10]: > 100 µM
- GI50 [11]: > 100 µM
- TGI [11]: > 100 µM
- GI50 [12]: > 100 µM
- TGI [12]: > 100 µM
- GI50 [13]: > 100 µM
- TGI [13]: > 100 µM
- GI50 [14]: > 100 µM
- TGI [14]: > 100 µM
- GI50 [15]: > 100 µM
- TGI [15]: > 100 µM
- GI50 [16]: 30.1 µM
- TGI [16]: > 100 µM
- GI50 [17]: > 100 µM
- TGI [17]: > 100 µM
- GI50 [18]: 2.02 µM
- TGI [18]: > 100 µM
- GI50 [19]: > 100 µM
- TGI [19]: > 100 µM
- GI50 [20]: > 100 µM
- TGI [20]: > 100 µM
- GI50 [21]: > 100 µM
- TGI [21]: > 100 µM
- GI50 [22]: > 100 µM
- TGI [22]: > 100 µM
- GI50 [23]: > 100 µM
- TGI [23]: > 100 µM
- GI50 [24]: > 100 µM
- TGI [24]: > 100 µM
- GI50 [25]: > 100 µM
- TGI [25]: > 100 µM
- GI50 [26]: > 100 µM
- TGI [26]: > 100 µM
- GI50 [27]: > 100 µM
- TGI [27]: > 100 µM
- GI50 [28]: > 100 µM
- TGI [28]: > 100 µM
- GI50 [29]: > 100 µM
- TGI [29]: > 100 µM
- GI50 [30]: > 100 µM
- TGI [30]: > 100 µM
- GI50 [31]: > 100 µM
- TGI [31]: > 100 µM
- GI50 [32]: > 100 µM
- TGI [32]: > 100 µM
- GI50 [33]: > 100 µM
- TGI [33]: > 100 µM
- GI50 [34]: > 100 µM
- TGI [34]: > 100 µM
- GI50 [35]: > 100 µM
- TGI [35]: > 100 µM
- GI50 [36]: > 100 µM
- TGI [36]: > 100 µM
- GI50 [37]: > 100 µM
- TGI [37]: > 100 µM
- GI50 [38]: > 100 µM
- TGI [38]: > 100 µM
- GI50 [39]: > 100 µM
- TGI [39]: > 100 µM
- GI50 [40]: > 100 µM
- TGI [40]: > 100 µM
- GI50 [41]: > 100 µM
- TGI [41]: > 100 µM
- GI50 [42]: > 100 µM
- TGI [42]: > 100 µM
- GI50 [43]: > 100 µM
- TGI [43]: > 100 µM
- GI50 [44]: > 100 µM
- TGI [44]: > 100 µM
- GI50 [45]: > 100 µM
- TGI [45]: > 100 µM
- GI50 [46]: > 100 µM
- TGI [46]: > 100 µM
- GI50 [47]: > 100 µM
- TGI [47]: > 100 µM
- GI50 [48]: > 100 µM
- TGI [48]: > 100 µM
- GI50 [49]: > 100 µM
- TGI [49]: > 100 µM
- GI50 [50]: > 100 µM
- TGI [50]: > 100 µM
- GI50 [51]: > 100 µM
- TGI [51]: > 100 µM
- GI50 [52]: > 100 µM
- TGI [52]: > 100 µM
- GI50 [53]: > 100 µM
- TGI [53]: > 100 µM
